Results as given in patent US20090143279A1 (priority 2007, published 2009).
Where two headings read alike, the source gives them in different places.

Key:
cytochrome c = type: cell-based, mouse
reactive oxygen species = type: cell-based, mouse
mtOXPHOS transcripts = type: cell-based, mouse
OXPHOS gene expression = type: cell-based, mouse
[1] = tested on: cellular dehydrogenase activity
nuOXPHOS transcripts = type: cell-based, mouse
[2] = tested on: mitochondrial membrane potential; type: cell-based, mouse
[3] = composite Z-score vs mock-treated (DMSO) wells, Conc 20 μM
[4] = Conc 20 μM, normalized score vs mock-treated (DMSO) wells
[5] = normalized composite Z-score vs mock-treated (DMSO) wells, Conc 20 μM
[6] = 20 μM, composite Z-score vs DMSO
[7] = 25.78 μM, composite Z-score vs DMSO
[8] = composite Z-score vs DMSO wells, Conc 20 μM
[9] = composite Z-score vs DMSO, Conc 20 μM
[10] = 8.76 μM, composite Z-score vs DMSO

## COc1ccc(-c2coc3cc(O)ccc3c2=O)c(OC)c1 [2′-methoxyformonetin]
Cytochrome c; [3]
  cyt c: −1.318
Reactive oxygen species; [3]
  ROS: 1.137
mtOXPHOS transcripts; [3]
  mitoOX: −0.296
OXPHOS gene expression; [3]
  GE-HTS: −0.484
[1]; [3]
  MTT: −1.138
nuOXPHOS transcripts; [3]
  nucOX: −0.561
C2C12 myotubes; [3]
  Viability: 0.477
[2]; [3]
  ΔΨm: 0.388

## COc1ccccc1-c1cc(=O)c2cccc(OC)c2o1 [8,2′-dimethoxyflavone]
Cytochrome c; [4]
  cyt c (composite Z-score): 0.864
Reactive oxygen species; [4]
  ROS (composite Z-score): 1.219
mtOXPHOS transcripts; [4]
  mitoOX (composite Z-score): −0.811
OXPHOS gene expression; [4]
  GE-HTS (composite Z-score): −0.593
[1]; [4]
  MTT (composite Z-score): −0.556
nuOXPHOS transcripts; [4]
  nucOX (composite Z-score): −0.414
C2C12 myotubes; [4]
  Viability (composite Z-score): −1.096
[2]; [4]
  ΔΨm (composite Z-score): 1.282

## COc1ccc(-c2cc(=O)c3ccc(OC)cc3o2)cc1 [4,7-dimethoxyflavone]
Cytochrome c; [5]
  cyt c: 0.031
Reactive oxygen species; [5]
  ROS: 1.067
mtOXPHOS transcripts; [5]
  mitoOX: 0.539
OXPHOS gene expression; [5]
  GE-HTS: 1.306
[1]; [5]
  MTT: −0.472
nuOXPHOS transcripts; [5]
  nucOX: 1.526
C2C12 myotubes; [5]
  Viability: −0.067
[2]; [5]
  ΔΨm: −0.795

## COC(=O)C1=CCCN(C)C1 [arecoline]
Cytochrome c; [6]
  cyt c: 0.839
Cytochrome c; [7]
  cyt c: 0.503
Reactive oxygen species; [6]
  ROS: −1.032
Reactive oxygen species; [7]
  ROS: −1.084
mtOXPHOS transcripts; [6]
  mitoOX: −1.072
mtOXPHOS transcripts; [7]
  mitoOX: −0.513
OXPHOS gene expression; [6]
  GE-HTS: −0.545
OXPHOS gene expression; [7]
  GE-HTS: 0.098
[1]; [6]
  MTT: −0.452
[1]; [7]
  MTT: −0.607
nuOXPHOS transcripts; [6]
  nucOX: −0.261
nuOXPHOS transcripts; [7]
  nucOX: 0.385
C2C12 myotubes; [6]
  Viability: 0.018
C2C12 myotubes; [7]
  Viability: 0.481
[2]; [6]
  ΔΨm: −0.451
[2]; [7]
  ΔΨm: −0.281

## CC(C)(Sc1cc(C(C)(C)C)c(O)c(C(C)(C)C)c1)Sc1cc(C(C)(C)C)c(O)c(C(C)(C)C)c1 [probucol]
Cytochrome c
  cyt c: −0.232
Cytochrome c; [8]
  cyt c: −0.180
Reactive oxygen species; [8]
  ROS: 0.464
mtOXPHOS transcripts; [8]
  mitoOX: −0.136
OXPHOS gene expression; [8]
  GE-HTS: −0.053
[1]; [8]
  MTT: −1.114
nuOXPHOS transcripts; [8]
  nucOX: −0.002
C2C12 myotubes; [8]
  Viability: −0.586
[2]; [8]
  ΔΨm: −0.142

## COc1cc2c(cc1OC)[C@@H]1C(=O)c3ccc4c(c3O[C@@H]1CO2)CC(C(C)C)O4 (stereo partly drawn) [dihydrorotenone, reference compound]
Cytochrome c; [9]
  cyt c: −3.153
Reactive oxygen species; [9]
  ROS: −0.682
mtOXPHOS transcripts; [9]
  mitoOX: −1.732
OXPHOS gene expression; [9]
  GE-HTS: −2.179
[1]; [9]
  MTT: −4.020
nuOXPHOS transcripts; [9]
  nucOX: −2.212
C2C12 myotubes; [9]
  Viability: 0.390
[2]; [9]
  ΔΨm: −0.314

## CCNC(=O)CC[C@H](N)C(=O)O [theanine]
Cytochrome c; [9]
  cyt c: 0.244
Reactive oxygen species; [9]
  ROS: 0.615
mtOXPHOS transcripts; [9]
  mitoOX: −0.778
OXPHOS gene expression; [9]
  GE-HTS: −1.153
[1]; [9]
  MTT: −0.851
nuOXPHOS transcripts; [9]
  nucOX: −1.209
C2C12 myotubes; [9]
  Viability: −0.613
[2]; [9]
  ΔΨm: −0.557

## Cc1cc(N)c2ccccc2[n+]1CCCCCCCCCC[n+]1c(C)cc(N)c2ccccc21 [dequalinium]
Cytochrome c; [10]
  cyt c: −4.108
Cytochrome c; [6]
  cyt c: −3.241
Reactive oxygen species; [10]
  ROS: −3.041
Reactive oxygen species; [6]
  ROS: −3.055
mtOXPHOS transcripts; [10]
  mitoOX: −2.024
mtOXPHOS transcripts; [6]
  mitoOX: −2.705
OXPHOS gene expression; [10]
  GE-HTS: −1.322
OXPHOS gene expression; [6]
  GE-HTS: −1.733
[1]; [10]
  MTT: −5.151
[1]; [6]
  MTT: −4.446
nuOXPHOS transcripts; [10]
  nucOX: −0.852
nuOXPHOS transcripts; [6]
  nucOX: −1.087
C2C12 myotubes; [10]
  Viability: −3.696
C2C12 myotubes; [6]
  Viability: −3.176
[2]; [10]
  ΔΨm: −3.242
[2]; [6]
  ΔΨm: −2.506

## CC(C)c1ccc2c(c1)CC[C@H]1[C@](C)(C(N)=O)CCC[C@]21C [dehydroabietamide]
Cytochrome c; [5]
  cyt c: 0.030
Reactive oxygen species; [5]
  ROS: −0.130
mtOXPHOS transcripts; [5]
  mitoOX: −0.877
OXPHOS gene expression; [5]
  GE-HTS: −0.843
[1]; [5]
  MTT: −0.187
nuOXPHOS transcripts; [5]
  nucOX: −0.731
C2C12 myotubes; [5]
  Viability: 0.807
[2]; [5]
  ΔΨm: 1.642

## O=C(COc1ccc(Cl)cc1)N1CCN(Cc2ccc3c(c2)OCO3)CC1 [fipexide]
Cytochrome c
  cyt c: 0.573
Cytochrome c; [6]
  cyt c: −0.071
Reactive oxygen species
  ROS: 0.307
Reactive oxygen species; [6]
  ROS: 0.873
mtOXPHOS transcripts
  mitoOX: 0.155
mtOXPHOS transcripts; [6]
  mitoOX: −0.657
OXPHOS gene expression
  GE-HTS: 0.169
OXPHOS gene expression; [6]
  GE-HTS: −0.241
[1]
  MTT: −0.924
[1]; [6]
  MTT: −0.186
nuOXPHOS transcripts
  nucOX: 0.163
nuOXPHOS transcripts; [6]
  nucOX: −0.010
C2C12 myotubes
  Viability: −0.617
C2C12 myotubes; [6]
  Viability: 0.721
[2]
  ΔΨm: −0.624
[2]; [6]
  ΔΨm: −0.354
